The values that follow come from publication PMC5344682, “Tuned SMC Arms Drive Chromosomal Loading of Prokaryotic Condensin” (Molecular Cell, 2017).

Common to all, as to test: PK/LDH coupled ATPase assay, NADH absorbance, Hill fit
What all share (format): biochemical

In assay [1] the target is T1, Smc (Bs Smc) (Bacillus subtilis, UniProt P51834, DEL439-486/DEL685-732).
T1 construct: full length 1186 residues, untagged, E. coli BL21-Gold(DE3), homodimer; plasmid pSG1497 pET-22b Smc; no ScpAB or DNA
As to conditions: 50 mM HEPES-KOH pH 7.5, 50 mM NaCl, 2 mM MgCl2, 25 C, 0.3 uM protein, ATP varied; Mini-Smc(1-438, 487-684, 733-1186), construct taken from plasmid pSG2914.

Assay [2] addresses T2, Smc (Bs Smc) (Bacillus subtilis, UniProt P51834).
T2 construct: full length 1186 residues, untagged, E. coli BL21-Gold(DE3), homodimer; plasmid pSG1497 pET-22b Smc; no ScpAB or DNA
Particulars: 50 mM HEPES-KOH pH 7.5, 50 mM NaCl, 2 mM MgCl2, 25 C, 0.3 uM protein, ATP varied; peptide insertion, plasmid pSG2965; matching strain printed as smc(1-394)-SGPGGGGGRQQAS-smc(395-1186).

For assay [3], the target named is T2, Smc (Bs Smc). Particulars: 50 mM HEPES-KOH pH 7.5, 50 mM NaCl, 2 mM MgCl2, 25 C, 0.3 uM protein, ATP varied; peptide insertion, plasmid pSG2966; matching strain printed as smc(1-479)-SGPGGGGGRQYQA-smc(480-1186).
The target of assay [4] is T3, Smc (Bs Smc) (Bacillus subtilis, UniProt P51834, DEL396-486/DEL685-775).
T3 construct: full length 1186 residues, untagged, E. coli BL21-Gold(DE3), homodimer; plasmid pSG1497 pET-22b Smc; no ScpAB or DNA
Particulars: 50 mM HEPES-KOH pH 7.5, 50 mM NaCl, 2 mM MgCl2, 25 C, 0.3 uM protein, ATP varied; Mini-Smc(1-395, 487-684, 776-1186), construct taken from plasmid pSG2917.

The target of assay [5] is T4, Smc (Bs Smc) (Bacillus subtilis, UniProt P51834, DEL400-486/DEL685-771).
T4 construct: full length 1186 residues, untagged, E. coli BL21-Gold(DE3), homodimer; plasmid pSG1497 pET-22b Smc; no ScpAB or DNA
Particulars: 50 mM HEPES-KOH pH 7.5, 50 mM NaCl, 2 mM MgCl2, 25 C, 0.3 uM protein, ATP varied; Mini-Smc(1-399, 487-684, 772-1186), construct taken from plasmid pSG2916.

For assay [6], the target named is T5, Smc (Bs Smc) (Bacillus subtilis, UniProt P51834, DEL436-486/DEL685-735).
T5 construct: full length 1186 residues, untagged, E. coli BL21-Gold(DE3), homodimer; plasmid pSG1497 pET-22b Smc; no ScpAB or DNA
As to conditions: 50 mM HEPES-KOH pH 7.5, 50 mM NaCl, 2 mM MgCl2, 25 C, 0.3 uM protein, ATP varied; Mini-Smc(1-435, 487-684, 736-1186), construct taken from plasmid pSG2915.

T2 sequence (P51834 whole entry): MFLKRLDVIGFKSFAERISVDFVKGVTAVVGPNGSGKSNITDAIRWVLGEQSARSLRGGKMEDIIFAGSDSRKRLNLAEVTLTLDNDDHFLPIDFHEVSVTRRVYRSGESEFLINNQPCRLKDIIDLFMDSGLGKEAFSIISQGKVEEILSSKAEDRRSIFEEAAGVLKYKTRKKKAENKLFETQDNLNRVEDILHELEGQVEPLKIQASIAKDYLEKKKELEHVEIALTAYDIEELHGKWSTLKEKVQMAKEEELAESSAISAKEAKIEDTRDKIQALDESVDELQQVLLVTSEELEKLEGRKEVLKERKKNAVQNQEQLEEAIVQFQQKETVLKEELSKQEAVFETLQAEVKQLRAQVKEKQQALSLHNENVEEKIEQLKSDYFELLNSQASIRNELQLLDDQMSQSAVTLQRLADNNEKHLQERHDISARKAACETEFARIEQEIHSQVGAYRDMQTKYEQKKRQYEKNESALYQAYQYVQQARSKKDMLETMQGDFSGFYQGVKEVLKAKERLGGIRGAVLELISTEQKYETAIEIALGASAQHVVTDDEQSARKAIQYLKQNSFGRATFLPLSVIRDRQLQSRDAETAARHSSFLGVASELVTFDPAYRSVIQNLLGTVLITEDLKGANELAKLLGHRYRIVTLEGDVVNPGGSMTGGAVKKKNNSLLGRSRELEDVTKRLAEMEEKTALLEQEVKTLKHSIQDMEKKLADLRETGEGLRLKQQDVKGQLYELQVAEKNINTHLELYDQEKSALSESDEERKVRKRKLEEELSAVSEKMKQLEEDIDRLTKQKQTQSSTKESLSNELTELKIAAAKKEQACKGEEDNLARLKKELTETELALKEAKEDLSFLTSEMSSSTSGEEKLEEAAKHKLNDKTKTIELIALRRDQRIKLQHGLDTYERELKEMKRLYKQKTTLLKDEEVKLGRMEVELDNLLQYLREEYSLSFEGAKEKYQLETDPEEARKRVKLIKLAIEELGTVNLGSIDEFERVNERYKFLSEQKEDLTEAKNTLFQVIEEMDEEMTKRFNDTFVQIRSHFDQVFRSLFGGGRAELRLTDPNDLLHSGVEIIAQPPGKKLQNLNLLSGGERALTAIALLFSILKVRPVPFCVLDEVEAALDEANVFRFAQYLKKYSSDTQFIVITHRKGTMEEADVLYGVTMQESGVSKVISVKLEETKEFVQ
T4 sequence (P51834 other isoform, or with tags, fused parts or gaps DEL400-486/DEL685-771): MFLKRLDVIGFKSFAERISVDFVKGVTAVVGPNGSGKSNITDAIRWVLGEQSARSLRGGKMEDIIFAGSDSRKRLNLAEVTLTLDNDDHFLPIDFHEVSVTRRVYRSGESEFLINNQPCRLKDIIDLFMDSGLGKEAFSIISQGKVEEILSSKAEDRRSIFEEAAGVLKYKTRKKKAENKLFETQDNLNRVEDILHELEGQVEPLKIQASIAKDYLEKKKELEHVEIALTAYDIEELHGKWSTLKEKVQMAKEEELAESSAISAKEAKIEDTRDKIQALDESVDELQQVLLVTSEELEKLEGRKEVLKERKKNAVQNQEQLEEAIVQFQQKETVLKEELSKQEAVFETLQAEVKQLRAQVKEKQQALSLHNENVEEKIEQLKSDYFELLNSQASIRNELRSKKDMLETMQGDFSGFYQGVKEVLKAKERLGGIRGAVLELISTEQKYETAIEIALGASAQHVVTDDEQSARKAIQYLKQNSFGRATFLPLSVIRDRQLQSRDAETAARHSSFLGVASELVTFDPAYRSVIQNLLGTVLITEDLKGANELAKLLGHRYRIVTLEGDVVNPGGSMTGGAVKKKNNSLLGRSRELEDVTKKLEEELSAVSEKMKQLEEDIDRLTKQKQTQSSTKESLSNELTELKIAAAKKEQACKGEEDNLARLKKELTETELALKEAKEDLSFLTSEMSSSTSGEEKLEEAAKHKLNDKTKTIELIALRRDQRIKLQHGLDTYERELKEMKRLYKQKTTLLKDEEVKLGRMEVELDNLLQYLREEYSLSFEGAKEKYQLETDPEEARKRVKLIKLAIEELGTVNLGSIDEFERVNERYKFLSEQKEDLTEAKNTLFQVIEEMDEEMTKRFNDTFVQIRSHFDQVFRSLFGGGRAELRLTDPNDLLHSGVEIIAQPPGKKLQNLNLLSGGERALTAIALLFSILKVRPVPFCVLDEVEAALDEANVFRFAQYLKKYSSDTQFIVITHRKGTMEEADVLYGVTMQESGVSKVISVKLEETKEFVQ
T5 sequence (P51834 other isoform, or with tags, fused parts or gaps DEL436-486/DEL685-735): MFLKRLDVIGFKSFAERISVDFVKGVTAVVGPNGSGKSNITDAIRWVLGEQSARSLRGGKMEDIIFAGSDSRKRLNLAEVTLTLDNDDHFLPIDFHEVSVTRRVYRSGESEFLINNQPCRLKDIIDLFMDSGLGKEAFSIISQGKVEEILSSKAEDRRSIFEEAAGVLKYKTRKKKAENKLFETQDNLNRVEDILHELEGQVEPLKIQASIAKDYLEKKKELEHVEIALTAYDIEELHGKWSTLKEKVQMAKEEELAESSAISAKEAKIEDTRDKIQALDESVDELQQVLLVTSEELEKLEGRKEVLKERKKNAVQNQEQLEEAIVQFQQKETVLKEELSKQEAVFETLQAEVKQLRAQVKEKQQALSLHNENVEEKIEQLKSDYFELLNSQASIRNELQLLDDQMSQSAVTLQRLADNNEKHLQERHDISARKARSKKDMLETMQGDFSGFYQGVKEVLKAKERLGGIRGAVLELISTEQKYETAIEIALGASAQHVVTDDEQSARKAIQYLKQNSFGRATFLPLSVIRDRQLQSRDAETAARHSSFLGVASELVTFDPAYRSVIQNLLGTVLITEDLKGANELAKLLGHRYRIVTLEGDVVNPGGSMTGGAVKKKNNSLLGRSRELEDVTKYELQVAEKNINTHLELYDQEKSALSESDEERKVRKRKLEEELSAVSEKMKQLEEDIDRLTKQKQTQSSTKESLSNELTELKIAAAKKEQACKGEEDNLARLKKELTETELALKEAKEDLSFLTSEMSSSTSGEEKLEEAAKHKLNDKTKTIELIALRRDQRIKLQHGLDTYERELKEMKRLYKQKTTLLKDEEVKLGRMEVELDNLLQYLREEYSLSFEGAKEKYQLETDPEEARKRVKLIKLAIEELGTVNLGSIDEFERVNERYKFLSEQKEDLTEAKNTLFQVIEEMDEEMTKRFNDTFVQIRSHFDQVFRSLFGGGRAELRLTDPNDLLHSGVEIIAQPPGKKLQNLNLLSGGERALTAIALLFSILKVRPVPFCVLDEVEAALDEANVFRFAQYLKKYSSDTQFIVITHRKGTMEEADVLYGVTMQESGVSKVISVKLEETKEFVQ
T1 sequence (P51834 other isoform, or with tags, fused parts or gaps DEL439-486/DEL685-732): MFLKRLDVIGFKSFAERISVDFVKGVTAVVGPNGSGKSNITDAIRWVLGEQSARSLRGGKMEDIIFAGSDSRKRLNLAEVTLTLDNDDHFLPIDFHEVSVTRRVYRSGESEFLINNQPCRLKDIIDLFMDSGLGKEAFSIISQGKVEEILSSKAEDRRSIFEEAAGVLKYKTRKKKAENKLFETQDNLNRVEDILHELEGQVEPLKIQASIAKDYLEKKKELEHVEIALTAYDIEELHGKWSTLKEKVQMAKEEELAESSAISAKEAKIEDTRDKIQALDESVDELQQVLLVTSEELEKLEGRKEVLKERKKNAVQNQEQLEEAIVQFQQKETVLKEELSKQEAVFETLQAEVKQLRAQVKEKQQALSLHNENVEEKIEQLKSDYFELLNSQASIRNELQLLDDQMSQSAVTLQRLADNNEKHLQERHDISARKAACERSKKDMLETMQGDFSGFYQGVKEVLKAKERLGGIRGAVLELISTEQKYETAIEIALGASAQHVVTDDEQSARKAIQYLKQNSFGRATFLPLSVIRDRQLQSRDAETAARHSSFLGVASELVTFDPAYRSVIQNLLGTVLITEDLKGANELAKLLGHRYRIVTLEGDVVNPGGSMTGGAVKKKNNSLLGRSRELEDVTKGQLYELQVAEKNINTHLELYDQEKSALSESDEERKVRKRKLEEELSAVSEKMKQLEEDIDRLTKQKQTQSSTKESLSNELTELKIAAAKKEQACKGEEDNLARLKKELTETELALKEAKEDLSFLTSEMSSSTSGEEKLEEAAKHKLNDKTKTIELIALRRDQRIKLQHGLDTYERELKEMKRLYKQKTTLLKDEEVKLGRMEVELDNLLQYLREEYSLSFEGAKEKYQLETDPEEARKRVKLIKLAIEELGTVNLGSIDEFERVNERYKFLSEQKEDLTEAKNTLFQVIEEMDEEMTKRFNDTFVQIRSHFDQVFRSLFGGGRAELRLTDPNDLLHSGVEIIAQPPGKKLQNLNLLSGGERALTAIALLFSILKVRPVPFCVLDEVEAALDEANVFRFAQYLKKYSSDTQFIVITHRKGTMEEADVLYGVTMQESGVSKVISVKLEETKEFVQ

Take `Nc1ncnc2c1ncn2[C@@H]1O[C@H](COP(=O)(O)OP(=O)(O)OP(=O)(O)O)[C@@H](O)[C@H]1O` [ATP]: the K0.5 entry on Smc (Bs Smc) [1] is listed as “We then purified Mini-Smc proteins to measure their ability to hydrolyze ATP in vitro”; at Smc (Bs Smc) [2] it was “Smc proteins with peptide insertions are functional ATPases”; at Smc (Bs Smc) [3] it was “Smc proteins with peptide insertions are functional ATPases”; at Smc (Bs Smc) [4], “We then purified Mini-Smc proteins to measure their ability to hydrolyze ATP in vitro”; on Smc (Bs Smc) [5], “We then purified Mini-Smc proteins to measure their ability to hydrolyze ATP in vitro”; at Smc (Bs Smc) [6], “We then purified Mini-Smc proteins to measure their ability to hydrolyze ATP in vitro”.
